Reference: patent US7211562B2, “Methods for enhancing the efficacy of cytotoxic agents through the use of HSP90 inhibitors” (Sloan-Kettering Institute for Cancer Research, priority 2000, dated 2007)

Experiments:
SKBR-3 cells [1] = assay: Confocal microscopy of spindle formation and nuclear fragmentation (Hoechst / anti-tubulin dual stain); type: cell-based, human; conditions: 12 h; for apoptosis / nuclear fragmentation / mitotic spindle formation / mitotic index: SKBr-3, 10 nM Taxol 4 h followed by 50 nM CNF-101 or vehicle
Procedure: Each experiment was repeated in triplicate.
The effects of Taxol®, CNF-101 and a combination of the two agents on nuclear fragmentation (a marker of apoptosis) and mitotic spindle formation in SKBR-3 cells were assessed.
In these sections, 4% of cells were undergoing mitosis and the mitotic cells appeared normal.

SKBR-3 cells [2] = assay: Cell cycle distribution by DNA content (FACS); type: cell-based, human; conditions: SKBR-3, 10 nM Taxol 4 h, 50 nM CNF-101 12–24 h, or reversed order
Procedure: Cells were trypsinized and analyzed by DNA content (an indication of cell cycle status) by fluorescent staining and FACS analysis. Cell cycle distribution was assayed according to Nusse et al., 1990, Cytometry, 11: 813, with a Becton Dickinson fluorescence-activated cell sorter and analyzed by Cell Cycle Multi-cycle system (Phoenix Flow System, San Diego, Calif.).

Structure (SMILES) | apoptosis / nuclear fragmentation (SKBR-3 cells [1]) | mitotic spindle formation / mitotic index (SKBR-3 cells [1]) | cells undergoing mitosis (SKBR-3 cells [1]; SKBr-3, 50 nM CNF-101 alone (or neither drug)) [%] | cell cycle distribution (SKBR-3 cells [2])
C=CCNC1=C2C[C@@H](C)C[C@H](OC)[C@H](O)[C@@H](C)/C=C(\C)[C@H](OC(N)=O)[C@@H](OC)/C=C\C=C(/C)C(=O)NC(=CC1=O)C2=O [CNF-101, 17-allylamino 17-demethoxygeldanamycin] | no significant apoptosis | no effect on the spindle | 4 | slightly enhanced the G1 fraction
CC(=O)O[C@H]1C(=O)[C@@]2(C)[C@H]([C@H](OC(=O)c3ccccc3)[C@]3(O)C[C@H](OC(=O)[C@H](O)[C@@H](NC(=O)c4ccccc4)c4ccccc4)C(C)=C1C3(C)C)[C@]1(OC(C)=O)CO[C@@H]1C[C@@H]2O [Taxol®, paclitaxel] | little evidence of apoptotic nuclear fragmentation | increase in the mitotic index with all the mitotic cells appearing to have damaged spindles |  | massive G2-M arrest
